# Assay: gradient 5% acetonitrile 3 min, to 50% in 2 min, to 85% in 15 min, held 3 min, 100 µL/min
# Conditions: column: Zorbax Extend-C18 2.1 x 50 mm; eluents: water / acetonitrile, 0.1% formic acid
# Summary of the method: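 Retention times of pure standards were taken from adduct peaks that were selected by computer and manually inspected. Over 3 months, mixtures of ~100 molecules were run by HPLC–quadrupole time-of-flight mass spectrometry in positive and negative ionization mode. The Zorbax Extend-C18 column (2.1 × 50 mm, 1.8 μm) ran at 100 μL/min in water and acetonitrile, each containing 0.1% formic acid, with 40 μL dead volume and 900 μL dwell volume.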
row,Compound,RP-LC retention time [s]
1,COc1ccc(-c2nc3c4ccccc4ncn3n2)cc1,924
2,COc1ccc(-c2noc(-c3nc(C(C)C)no3)n2)cc1OC,1050
3,COc1cccc(NC(=O)C2CCN(S(C)(=O)=O)c3cc(Cl)ccc3O2)c1 (stereo unspecified),966
4,CN1C(=O)c2cc(S(=O)(=O)Nc3ccc(Cl)cc3)ccc2Oc2cccnc21,950
5,Clc1ccc(C2Cn3nnc(-c4nc(-c5cccc(Cl)c5)no4)c3CO2)cc1 (stereo unspecified),1310
6,O=C([C@@H]1C[C@H](F)CN1C(=O)c1ccccc1)N1CCOCC1,590
7,CC(C)=C1SC(N2CCN(c3cccc(C(F)(F)F)c3)CC2)=NC1=O,922
8,CCCCn1cc(S(=O)(=O)Nc2cccc(CC)c2)c2cccnc21,1070
9,CC1(C(=O)NCc2ccccc2)CCN(S(=O)(=O)c2ccc(Br)cc2)CC1,961
10,CO[C@H]1C(=O)N(C(C)C)[C@H]1C1CCN(S(=O)(=O)c2cccc(F)c2)CC1,860
11,CCCOc1ccc(N2CCN(C(=O)c3cc(Cl)ccc3OC)CC2)nn1,670
12,Cn1c(-c2ccccc2)c(C(=O)C(=O)N2CCOCC2)c2ccccc21,800
13,COc1cc(OC)c(NS(=O)(=O)c2cc(-c3c(C)noc3NC(C)=O)ccc2C)cc1Cl,813
14,O=C(Cn1cccc1-c1nnc(C2CCC2)o1)Nc1ccc(F)c(F)c1,945
15,CCc1cc(C(=O)Nc2ccc(OC)c(Cl)c2)nc2ccnn12,1040
16,CCc1nc(OCC(=O)Nc2cccc(Br)c2)c2ccccc2n1,889
17,CCCCCN1CC(=O)N(c2cccc(Cl)c2)[C@@H]2CS(=O)(=O)C[C@@H]21,854
18,COC1C(=O)N(c2cccc(F)c2)C12CCN(S(=O)(=O)Cc1ccccc1F)CC2 (stereo unspecified),1040
19,N#Cc1ccsc1NC(=O)c1ccc2ncsc2c1,725
20,CCS(=O)(=O)c1ccc2c(c1)N(Cc1nc(-c3ccc(F)cc3)no1)C(=O)CO2,902
21,CCc1cccc(NC(=O)Nc2ccc3nnc(C)n3c2)c1,730
22,CCn1nccc1-c1cccc(-c2noc(-c3cc(Cl)ccc3F)n2)c1,1300
23,Cc1ccccc1Cc1nc(C2CC(=O)N(c3ccc(F)c(Cl)c3)C2)no1 (stereo unspecified),1090
24,CN1C(=O)[C@H]2CN(Cc3ccc(Cl)cc3)C[C@H]2C1=O,598
25,CC(C)Cn1cc(CCNS(=O)(=O)c2ccc(Br)s2)c2cccnc21,995
26,CC(C)CN1C(=O)CCc2cc(NS(=O)(=O)c3cccc(Cl)c3)ccc21,932
27,CCn1ncc(N2CCCC(CC(=O)N3CCC4(CC3)OCCO4)C2)cc1=O (stereo unspecified),646
28,O=S(=O)(NCC(O)(c1ccccc1)C(F)(F)F)c1cc(F)ccc1F (stereo unspecified),870

# More lines, now with the values ahead:
row,RP-LC retention time [s],Compound
1,602,CC(C)N1CCN(C(=O)c2cn3ccnc(-c4ccccc4)c3n2)CC1
2,688,CCCNC(=O)CN1CCN(Cc2ccc(F)cc2)C1=O
3,917,CCc1nc(-c2ccc(S(=O)(=O)N3CCC(C(=O)NCc4cccs4)CC3)cc2)no1
4,760,Cc1noc(C2CN(C(=O)Nc3cc(Cl)ccc3C)CC23CCOCC3)n1 (stereo unspecified)
5,580,O=C(NC1CCN(c2ncnc3c2CCC3)C1)c1ccsc1 (stereo unspecified)
6,629,COc1cc(NC(=O)NC2CCN(c3cc(N4CCOCC4)cnn3)C2)cc(OC)c1 (stereo unspecified)
7,1100,O=C(NC1CCCCCC1)c1nnc(-c2ccc(S(=O)(=O)N3CCCCC3)cc2)o1
8,626,c1csc(-c2nc(-c3ccc4c(c3)ncn4CCN3CCCCC3)no2)c1
9,662,Cc1nn(C)c(C)c1S(=O)(=O)N1CCC(c2noc(-c3cccnc3)n2)C1 (stereo unspecified)
10,982,Cc1cc(-c2nnc(-c3ccccc3)o2)c(C)n1CC(=O)NCc1ccc(Cl)cc1
11,892,COc1ccc(NC(=O)c2nnc(CCCC(=O)NCCc3c[nH]c4ccc(Cl)cc34)s2)cc1
12,717,CCCn1c(=O)c(C)nc2cc(-c3noc(-c4cccc(N(C)C)c4)n3)ccc21
13,1420,COc1ccc(C(=O)N2c3nc(-c4ccccc4)nn3C3(CCCCC3)[C@@H]3CCCC[C@@H]32)cc1OC
14,692,COc1ccc(OC)c(CNC(=O)c2cc3c(=O)n(C)ccc3n2C)c1
15,669,Cc1nc(C)c(C(=O)N2CCCC(c3nnc(-c4ccc5c(c4)OCO5)o3)C2)s1 (stereo unspecified)
16,787,CCn1c(=O)c2ccn(CC(=O)N3CCN(c4ccc(Cl)cc4)CC3)c2n(CC)c1=O
17,709,Cc1nn(-c2ccc(N3CCOCC3)nn2)c(C)c1CCC(=O)Nc1ccccc1F
18,748,CC(C)n1cnc(S(=O)(=O)N2CCC(C(=O)Nc3ccccc3)CC2)c1
19,564,Cc1nc(-c2cccs2)sc1C(=O)NCCn1nc(-n2ccnc2C)ccc1=O

row,RP-LC retention time [s],Compound
1,818,COc1ccc(NC(=O)C2CC(=O)N(CCc3c[nH]c4ccc(Cl)cc34)C2)cc1 (stereo unspecified)
2,1070,CCOc1ccccc1NC(=O)N(C)CCc1noc(C2CCCCC2)n1
3,917,O=C(NC1CCCCCC1)c1nnc(-c2ccc(S(=O)(=O)N3CCOCC3)cc2)o1
4,636,COCc1noc(CC2CCOC3(CCN(Cc4sccc4C)CC3)C2)n1 (stereo unspecified)
5,748,Cc1cc2c(=O)n(CC(=O)Nc3ccc(F)c(C)c3)c3cccnc3n2n1
6,792,O=C(c1ccc(Cl)cc1)N1CCc2sc(C(=O)N3CCCC3)cc2C1
7,804,Cc1ccc(CN2CCCn3nc(C(=O)NCc4ccco4)cc3C2=O)cc1
8,690,O=C(c1cccs1)N1CCCCC1c1nncn1CC1CC1 (stereo unspecified)
9,580,Cc1cccc(CNC(=O)c2nc3cccnc3n(CC(C)C)c2=O)c1
10,606,O=C(NC1CCN(C(=O)C2CC2)C1)C1CCC1 (stereo unspecified)
11,712,O=C(NC1CCCN(c2ccc(=O)[nH]n2)C1)C1(S(=O)(=O)c2ccc(Cl)cc2)CC1 (stereo unspecified)
12,694,CC1CN(C(=O)CCC(=O)NC2CCN(Cc3ccccc3)CC2)c2cc(Cl)ccc2O1 (stereo unspecified)
13,680,O=C(Cc1cc(-c2ccc3c(c2)OCCO3)on1)N1CCN(C(=O)c2ccco2)CC1
14,900,COc1ccc(NC(=O)c2cnc3c(c2)c(=O)n(C)c(=O)n3-c2ccc(C)cc2)cc1
15,622,Cc1ccc(C)c(CNC(=O)c2cn3c(n2)CCCC3)c1
16,650,COc1ccc(Nc2c(C(=O)N3CCCC(C)C3)cnc3nc(C)ccc23)cc1 (stereo unspecified)
17,910,COC(=O)c1ccc(NC(=O)C(=O)NCCc2ccc(N3CCCC3)cc2)cc1
18,758,CCc1ccc(CNC(=O)Cc2nnc(-c3ccc4ncccc4c3)o2)cc1
19,634,CCn1nc(C)c(CCNC(=O)C2CCCN(c3nn4c(=O)c5c(nc4s3)CCCC5)C2)c1C (stereo unspecified)

# Source: the METLIN SMRT retention time set (Domingo-Almenara et al. 2019)
